Data: ChEMBL document CHEMBL3352640, “Carbonic anhydrase inhibitors: design, synthesis, and biological evaluation of novel sulfonyl semicarbazide derivatives” (ACS Med Chem Lett, 2014)

Biological target: Carbonic anhydrase 9 (Homo sapiens, UniProt Q16790)
Assay: Inhibition of human carbonic anhydrase 9 preincubated for 15 mins by stopped flow CO2 hydration assay

COc1ccc(S(=O)(=O)NNC(=O)Nc2ccc(S(N)(=O)=O)cc2)cc1
Ki: 80.4 nM

NS(=O)(=O)c1ccc(NC(=O)NNS(=O)(=O)c2ccccc2)cc1
Ki: 73.9 nM

NS(=O)(=O)c1ccc(NC(=O)NNS(=O)(=O)c2ccc(Cl)c([N+](=O)[O-])c2)cc1
Ki: 38.7 nM

CC(=O)Nc1ccc(S(=O)(=O)NNC(=O)Nc2ccc(S(N)(=O)=O)cc2)cc1
Ki: 81.3 nM

NS(=O)(=O)c1ccc(NC(=O)NNS(=O)(=O)c2ccc(Br)cc2)cc1
Ki: 30.4 nM

Cc1ccc(S(=O)(=O)NNC(=O)Nc2ccc(S(N)(=O)=O)cc2)cc1
Ki: 24 nM

NS(=O)(=O)c1ccc(NC(=O)NNS(=O)(=O)c2ccc(Cl)cc2)cc1
Ki: 23.1 nM

NS(=O)(=O)c1ccc(NC(=O)NNS(=O)(=O)c2ccc([N+](=O)[O-])cc2)cc1
Ki: 20.5 nM

NS(=O)(=O)c1ccc(NC(=O)NNS(=O)(=O)c2ccc(F)cc2)cc1
Ki: 25.1 nM
